Calls of active or inactive are those of the source. No cut-off for these calls is given here.
Key:
Type in all cases: functional, organism-based
Mus musculus [1] = experiment: Immunoregulatory activity in ICR mouse assessed as increase in serum IFN-gamma level at 100 mg/kg, po after 12 to 24 hrs by ELISA; parameters: dose 100 mg/kg
Mus musculus [2] = experiment: Immunoregulatory activity in ICR mouse assessed as increase in serum IFN-gamma level at 100 mg/kg, po after 12 hrs by ELISA; parameters: dose 100 mg/kg
Mus musculus [3] = experiment: Immunoregulatory activity in po dosed ICR mouse assessed as increase in serum IFN-gamma level after 24 hrs by ELISA
Mus musculus [4] = experiment: Immunoregulatory activity in ICR mouse assessed as increase in serum IFN-gamma level at 300 mg/kg, po after 24 hrs by ELISA; parameters: dose 300 mg/kg
Mus musculus [5] = experiment: Immunoregulatory activity in ICR mouse assessed as increase in serum IFN-gamma level at 100 mg/kg, po after 24 hrs by ELISA; parameters: dose 100 mg/kg

Substance | Activity (Mus musculus [1]) | Activity (Mus musculus [2]) | Activity (Mus musculus [3]) | Activity (Mus musculus [4]) [pg/mL] | Activity (Mus musculus [5]) [pg/mL]
6-O-[3-(trimethylgermyI)propyl]-beta-D-glucopyranoside | Active | inactive | Dose-dependent effect | 600 | 
GERMANIUM SESQUIOXIDE | Active | inactive |  |  | 320
